Results reported in article PMC5749289, “Cytotoxicity Study of Cyclopentapeptide Analogues of Marine Natural Product Galaxamide towards Human Breast Cancer Cells” (Oxidative Medicine and Cellular Longevity, 2017).
Values after ≈ are worked out from the molar mass of the structure shown. Where a SMILES comes first, the peptide text is derived from it.

Assays:
[1] = tested on: human breast carcinoma MCF-7; assay: cells; format: cell-based
Protocol: (§1) Human hepatocellular carcinoma HepG2, human breast carcinoma MCF-7, human epitheloid cervix carcinoma HeLa, human breast carcinoma MB-MDA-231 cell lines, and a normal human umbilical vein endothelial cell line (HUVECs) were obtained from the China Cell Bank of the Institute of Biochemistry and were cultured in a DMEM culture medium (DMEM, Corning, NY, USA) containing 10% fetal bovine serum (FBS, Hyclone, Logan, UT, USA), 1% penicillin-streptomycin, and an antifungal agent in a 5% CO2-humidified atmosphere at 37°C. The culture medium was replaced once in a day. Trypsin digestion method was adopted for cell propagation. Upon reaching 80–90% confluence, the cells were rinsed twice with PBS. A certain amount of 0.25% trypsin digestion solution was then added and maintained for 3–5 min at 37°C. Afterward, DMEM culture medium containing 10% fetal bovine serum was added to terminate the digestion. The cells were then blown well to form single-cell suspensions.
(§2) The cell viability was determined by measuring the ability of cells to transform MTT (3-(4,5-dimethylthiazol-2-yl)-2,5-diphenyltetrazolium bromide) (GENView, Houston, TX, USA) to a purple formazan dye. The cells were seeded in 96-well cell culture plates at 2.5 × 10^3 cells/well for 24 h. The cells were then incubated with galaxamide and its analogues for 48 h. After incubation, 20 μL/well of MTT solution (5 mg/mL phosphate buffered saline) was added and incubated for 5 h. The medium was aspirated and replaced with 100 μL/well of DMSO to dissolve the formazan salt. The color intensity of the formazan solution, which reflects the cell growth condition, was measured at 570 nm using a microplate spectrophotometer (SpectroAma™ 250, Winooski, VT, USA).

[2] = tested on: human hepatocellular carcinoma HepG2; assay: cells; format: cell-based; conditions: 48 h
Protocol: as §1, §2

[3] = tested on: human breast carcinoma MB-MDA-231; assay: cells; format: cell-based; conditions: 48 h
Protocol: as §1, §2

[4] = tested on: human epitheloid cervix carcinoma HeLa; assay: cells; format: cell-based; conditions: 48 h
Protocol: as §1, §2

[5] = tested on: normal human umbilical vein endothelial cell line (HUVECs); format: cell-based; conditions: 48 h
Protocol: as §1, §2

[6] = tested on: MCF-7 cells; assay: Mitochondrial membrane potential, JC-1 staining, flow cytometry; format: cell-based, human; conditions: MCF-7, 2.5, 5.0 and 10.0 μg/mL, 48 h
Protocol: The cell suspension (2 mL) with a concentration of 1 × 10^5 cells/mL was inoculated per well in 6-well plates for 12 h. After 48 h of incubation with galaxamide and representative compound at the concentration of 0, 2.5, 5, and 10 μg/mL, the supernatant was aspirated and the cells were washed twice with PBS and digested with 0.25% trypsin. The cells were suspended by pipetting, followed by centrifugation (1000 rpm, 5 min). The supernatant was aspirated and the cells were washed with PBS and centrifuged again to obtain a cell pellet. The cells were resuspended by adding and thoroughly mixing 500 μL of PBS in a microcentrifuge tube. Finally, the samples were stained with JC-1 (5,5′,6,6′-tetrachloro-1,1′,3,3′-tetraethylbenzimi-dazolylcarbocyanine iodide) and incubated in darkness at 37°C for 15 min. After the treatment, the cells were detected by flow cytometry.

[7] = tested on: MCF-7 cells; assay: Annexin V-FITC/PI apoptosis, flow cytometry; format: cell-based, human; conditions: MCF-7, 2.5, 5 and 10 μg/mL, 48 h
Protocol: The apoptotic cells were quantified using an Annexin V-FITC (fluorescein isothiocyanate) (Sigma-Aldrich, St. Louis, MO, USA) cell apoptosis assay kit according to the instruction provided with the kit. In brief, about 1.5 × 10^5 cells were plated in 6-well plates and treated with galaxamide and representative compound (0, 2.5, 5, and 10 μg/mL) for 48 h. The cells were resuspended in […] binding buffer. Afterwards, […] was added and then incubated in darkness at room temperature for 10 min. The cells were again resuspended in […] binding buffer and stained with […] (propidium iodide). The prepared cells were then analyzed using a flow cytometry (Coulter Epics Elite, Miami, FL, USA). The cells in the FITC-positive and PI-negative fractions were regarded as apoptotic cells.

[8] = tested on: MCF-7 cells; assay: Intracellular ROS assay, DCFH-DA, flow cytometry; format: cell-based, human; conditions: MCF-7, 2.5, 5.0 and 10.0 μg/mL, 48 h
Protocol: Two milliliters of cell suspension with a cell concentration of 1 × 10^5 cells/mL was inoculated per well in 6-well plates. After synchronization, the cells were incubated with galaxamide and representative analogue (0, 2.5, 5, and 10 μg/mL) for 48 h. Afterwards, the supernatant was aspirated and the cells were washed twice with PBS and digested with 0.25% trypsin. Then, DMEM supplemented with 10% fetal bovine serum was added to terminate digestion. The cells were suspended by pipetting, followed by centrifugation (1000 rpm, 5 min). The supernatant was aspirated and the cells were washed once with PBS and centrifuged again to obtain a cell pellet. The cells were resuspended by adding and thoroughly mixing […] in a microcentrifuge tube. The samples were then stained with DCFH-DA ([…]) and analyzed by flow cytometry.

[9] = tested on: MCF-7 cells; assay: Cell cycle analysis by PI staining, flow cytometry; format: cell-based, human; conditions: MCF-7, 2.5, 5.0 and 10.0 μg/mL, 48 h
Protocol: MCF-7 cells with the density of about 1.5 × 10^5 were incubated with galaxamide and representative analogue (0, 2.5, 5, and 10 μg/mL) for 48 h. Afterwards, collected cells were washed twice with PBS and centrifugation (1000 rpm, 5 min), then fixed using 70% ethanol for 12 h at 4°C. Ethanol was removed by centrifugation (2000 rpm, 5 min), and the cells were washed twice with PBS. Cells were then resuspended in […] and kept at 37°C for 15 min. The cell cycle was analyzed by flow cytometry measuring the amount of PI-labeled DNA in fixed cells.

[10] = from Table 1 IC50 values (fits MCF-7)

Row | IC50 (μg/mL) values in various cell lines, MCF-7 ([1]; 48 h) | IC50 (μg/mL) values in various cell lines, HepG2 [2] | IC50 (μg/mL) values in various cell lines, MD-MBA-231 [3] | IC50 (μg/mL) values in various cell lines, HeLa [4] | Compound | IC50 (μg/mL) values in various cell lines, HUVECs [5] | JC-1 fluorescence ratio (red/green), MMP [6] | intracellular ROS [8] | also measured
1 | 4.76 ± 1.36 µg/mL (≈ 7.58 µM) | 6.25 ± 1.03 µg/mL (≈ 9.95 µM) | 5.83 ± 0.45 µg/mL (≈ 9.29 µM) | 13.22 ± 1.12 µg/mL (≈ 21.1 µM) | CC(C)C[C@@H]1NC(=O)[C@H](CC(C)C)N(C)C(=O)[C@H](Cc2ccccc2)NC(=O)[C@H](CC(C)C)N(C)C(=O)[C@H](CC(C)C)NC1=O [Compound 1, cyclo(Phe-N-Me-Leu-Leu-Leu-N-Me-Leu)] | >40 µg/mL |  |  | 
2 | 3.16 ± 0.92 µg/mL (≈ 4.66 µM) | 8.42 ± 1.82 µg/mL (≈ 12.4 µM) | 4.48 ± 2.24 µg/mL (≈ 6.61 µM) |  | CC(C)C[C@@H]1NC(=O)[C@H](CC(C)C)N(C)C(=O)[C@H](Cc2ccc3ccccc3c2)NC(=O)[C@H](CC(C)C)N(C)C(=O)[C@H](CC(C)C)NC1=O [Compound 2, cyclo(Nal-N-Me-Leu-Leu-Leu-N-Me-Leu)] (HELM PEPTIDE1{[O=C([C@H](Cc1ccc2ccccc2c1)N[*:1])[*:2]].[meL].L.L.[meL]}$PEPTIDE1,PEPTIDE1,1:R1-5:R2$$$V2.0) | >40 µg/mL |  |  | 
3 | 1.72 ± 0.85 µg/mL (≈ 2.58 µM) | 3.98 ± 0.71 µg/mL (≈ 5.97 µM) | 3.51 ± 1.32 µg/mL (≈ 5.26 µM) | 5.32 ± 0.42 µg/mL (≈ 7.98 µM) | CC(C)C[C@@H]1NC(=O)[C@H](CC(C)C)N(C)C(=O)[C@H](Cc2c[nH]c3ccccc23)NC(=O)[C@H](CC(C)C)N(C)C(=O)[C@H](CC(C)C)NC1=O [Compound 3, cyclo(Trp-N-Me-Leu-Leu-Leu-N-Me-Leu)] (HELM PEPTIDE1{L.L.[meL].W.[meL]}$PEPTIDE1,PEPTIDE1,1:R1-5:R2$$$V2.0) | >40 µg/mL | reduced dose dependently | induced ROS in a dose-dependent manner | cytotoxicity relative to parent structure galaxamide [1]: almost sixfold higher cytotoxicity; fold less active than doxorubicin [1, 10]: 3.44 fold; fold more active than anticancer drug DPP [1, 10]: 8.49 fold; induction of apoptosis [7]: significantly induced the apoptosis of human breast cancer MCF-7 cells in a dose-dependent manner; cell cycle arrest [9]: induced a significant G1 phase arrest of cell cycle progression in a dose-dependent manner
4 |  |  |  |  | N.N.[Cl][Pt][Cl] [DPP, reference compound] |  |  |  | IC50 (μg/mL) values in various cell lines, MCF-7 ([1]; MCF-7, MTT, 48 h, mean ± SD of three experiments): 14.61 ± 2.01 µg/mL; IC50 (μg/mL) values in various cell lines, HepG2 ([2]; HepG2, MTT, mean ± SD of three experiments): 10.43 ± 1.23 µg/mL; IC50 (μg/mL) values in various cell lines, MD-MBA-231 ([3]; MD-MBA-231, MTT, mean ± SD of three experiments): 13.75 ± 0.56 µg/mL; IC50 (μg/mL) values in various cell lines, HeLa ([4]; HeLa, MTT, mean ± SD of three experiments): 8.90 ± 0.89 µg/mL
5 |  |  |  |  | COc1cccc2c1C(=O)c1c(O)c3c(c(O)c1C2=O)C[C@@](O)(C(=O)CO)C[C@@H]3O[C@H]1C[C@H](N)[C@H](O)[C@H](C)O1 [Doxorubicin, reference compound] |  |  |  | IC50 ([1]; Homo sapiens, MCF7, MCF-7, MTT, 48 h, mean ± SD of three experiments, read-out: IC50 (μg/mL) values in various cell lines, MCF-7): 0.5 ± 0.48 µg/mL (≈ 0.92 µM); IC50 ([2]; Homo sapiens, HepG2, MTT, mean ± SD of three experiments, read-out: IC50 (μg/mL) values in various cell lines, HepG2): 2.27 ± 0.24 µg/mL (≈ 4.18 µM); IC50 ([3]; Homo sapiens, MD-MBA-231, MTT, mean ± SD of three experiments, read-out: IC50 (μg/mL) values in various cell lines, MD-MBA-231): 1.29 ± 0.57 µg/mL (≈ 2.37 µM); IC50 ([4]; Homo sapiens, HeLa, MTT, mean ± SD of three experiments, read-out: IC50 (μg/mL) values in various cell lines, HeLa): 0.32 ± 0.22 µg/mL (≈ 0.589 µM)
6 |  |  |  |  | CC(C)C[C@@H]1NC(=O)[C@H](CC(C)C)N(C)C(=O)[C@H](CC(C)C)NC(=O)[C@H](CC(C)C)N(C)C(=O)[C@H](CC(C)C)NC1=O [Galaxamide, galaxamide] (HELM PEPTIDE1{L.L.[meL].L.[meL]}$PEPTIDE1,PEPTIDE1,1:R1-5:R2$$$V2.0) |  | reduced dose dependently | induced ROS in a dose-dependent manner | 
